10 compounds from ChEMBL document CHEMBL1157583, “Novel irreversible epidermal growth factor receptor inhibitors by chemical modulation of the cysteine-trap portion” (J Med Chem, 2010) can be followed below.

Molecules are shown by their SMILES. Activity calls are given as the source filed them. No cut-off for these calls is given here. Bounds are passed on as bounds.

For series [1], the system named is NCI-H1975. The experiment in a line: Induction of apoptosis in human NCI-H1975 cells assessed as activation of caspase-3 at 5 uM after 2 days by Western blot. Format: functional, cell-based.
The target in series [2] is T1, Epidermal growth factor receptor (Homo sapiens, UniProt P00533). The experiment in a line: Inhibition of human recombinant EGFR expressed in insect cells by time-resolved fluorimetry. Format: cell-based.
Series [3] deals with T1, Epidermal growth factor receptor. The settings on record: A-431, at 1 µM.
Description: Inhibition of EGFR autophosphorylation in human A431 cells at 1 uM after 8 hrs by Western blot
For series [4] the target is unchanged. The note with it: A-431, at 1 µM. The source holds these as a separate data set.
Description: Inhibition of EGFR autophosphorylation in human A431 cells at 1 uM after 1 hr by Western blot
For a further series, the system named is A-431. In words: Antiproliferative activity against human A431 cells assessed as viable cells at 10 uM. The note with it: read-out: Activity. Format: functional.
In series [5] the test system is NCI-H1975. In words: Antiproliferative activity against human NCI-H1975 cells after 72 hrs by MTT assay. Type of series: functional, cell-based. The note with it: NCI-H1975, 72 h.
Series [6] addresses T1, Epidermal growth factor receptor. In words: Inhibition of EGFR autophosphorylation in human A431 cells after 1 hr by Western blot. Type of series: cell-based, A-431.
The target is the same in series [7]. In words: Inhibition of EGFR autophosphorylation in human A431 cells after 8 hrs by Western blot. Type of series: cell-based, A-431.
Series [8] relates to SW-620. In words: Cytotoxicity against human SW620 cells after 72 hrs by MTT assay. The note with it: SW-620, 72 h. Type of series: ADME, cell-based.
The target in series [9] is Receptor tyrosine-protein kinase erbB-2 (Homo sapiens) (UniProt P04626). The experiment in a line: Inhibition of ERBB2 autophosphorylation in human NCI-H1975 cells by Western blot. Type of series: cell-based.
For series [10], the system named is SW-620. In words: Cytotoxicity against human SW620 cells at 10 uM after 72 hrs by MTT assay. Type of series: cell-based. The note with it: sw-620, 72 h.
For series [11], the system named is NCI-H1975. The experiment in a line: Cytotoxicity against human NCI-H1975 cells assessed as cell death at 5 uM after 72 hrs by propidium iodide/Hoechst staining based fluorescence microscopy. Type of series: functional.

T1 sequence (P00533 whole entry): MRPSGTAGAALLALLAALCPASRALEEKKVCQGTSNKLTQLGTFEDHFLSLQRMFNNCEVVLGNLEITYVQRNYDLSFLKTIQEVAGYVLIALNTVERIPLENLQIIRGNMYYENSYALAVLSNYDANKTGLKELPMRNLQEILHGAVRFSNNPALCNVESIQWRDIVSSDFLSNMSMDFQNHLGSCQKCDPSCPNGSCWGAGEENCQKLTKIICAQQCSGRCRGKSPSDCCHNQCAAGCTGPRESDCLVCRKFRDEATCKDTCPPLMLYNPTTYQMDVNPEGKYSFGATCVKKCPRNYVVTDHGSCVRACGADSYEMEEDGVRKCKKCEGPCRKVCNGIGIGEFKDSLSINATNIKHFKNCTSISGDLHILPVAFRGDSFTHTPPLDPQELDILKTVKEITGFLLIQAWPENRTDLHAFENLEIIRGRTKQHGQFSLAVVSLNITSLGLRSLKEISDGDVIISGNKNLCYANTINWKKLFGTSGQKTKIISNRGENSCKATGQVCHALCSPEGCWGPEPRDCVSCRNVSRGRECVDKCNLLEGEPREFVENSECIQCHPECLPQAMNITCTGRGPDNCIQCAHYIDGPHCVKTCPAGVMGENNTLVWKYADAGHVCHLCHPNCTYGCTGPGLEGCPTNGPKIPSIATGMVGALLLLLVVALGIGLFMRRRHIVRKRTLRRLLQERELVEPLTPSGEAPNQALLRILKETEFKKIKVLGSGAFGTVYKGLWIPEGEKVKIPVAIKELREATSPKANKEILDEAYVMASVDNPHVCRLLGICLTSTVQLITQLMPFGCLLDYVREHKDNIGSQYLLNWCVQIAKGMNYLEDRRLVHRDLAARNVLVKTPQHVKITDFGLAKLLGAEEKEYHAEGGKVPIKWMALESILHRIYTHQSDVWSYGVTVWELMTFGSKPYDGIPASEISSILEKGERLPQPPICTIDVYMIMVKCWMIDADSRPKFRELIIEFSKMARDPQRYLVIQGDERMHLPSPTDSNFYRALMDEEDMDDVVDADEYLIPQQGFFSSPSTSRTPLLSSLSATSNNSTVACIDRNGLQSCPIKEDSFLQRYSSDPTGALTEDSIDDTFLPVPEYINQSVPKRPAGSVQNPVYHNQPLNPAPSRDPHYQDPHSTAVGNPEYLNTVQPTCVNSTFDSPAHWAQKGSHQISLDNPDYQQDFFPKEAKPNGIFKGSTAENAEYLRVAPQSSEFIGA
Receptor tyrosine-protein kinase erbB-2 (Homo sapiens), sequence (P04626 whole entry): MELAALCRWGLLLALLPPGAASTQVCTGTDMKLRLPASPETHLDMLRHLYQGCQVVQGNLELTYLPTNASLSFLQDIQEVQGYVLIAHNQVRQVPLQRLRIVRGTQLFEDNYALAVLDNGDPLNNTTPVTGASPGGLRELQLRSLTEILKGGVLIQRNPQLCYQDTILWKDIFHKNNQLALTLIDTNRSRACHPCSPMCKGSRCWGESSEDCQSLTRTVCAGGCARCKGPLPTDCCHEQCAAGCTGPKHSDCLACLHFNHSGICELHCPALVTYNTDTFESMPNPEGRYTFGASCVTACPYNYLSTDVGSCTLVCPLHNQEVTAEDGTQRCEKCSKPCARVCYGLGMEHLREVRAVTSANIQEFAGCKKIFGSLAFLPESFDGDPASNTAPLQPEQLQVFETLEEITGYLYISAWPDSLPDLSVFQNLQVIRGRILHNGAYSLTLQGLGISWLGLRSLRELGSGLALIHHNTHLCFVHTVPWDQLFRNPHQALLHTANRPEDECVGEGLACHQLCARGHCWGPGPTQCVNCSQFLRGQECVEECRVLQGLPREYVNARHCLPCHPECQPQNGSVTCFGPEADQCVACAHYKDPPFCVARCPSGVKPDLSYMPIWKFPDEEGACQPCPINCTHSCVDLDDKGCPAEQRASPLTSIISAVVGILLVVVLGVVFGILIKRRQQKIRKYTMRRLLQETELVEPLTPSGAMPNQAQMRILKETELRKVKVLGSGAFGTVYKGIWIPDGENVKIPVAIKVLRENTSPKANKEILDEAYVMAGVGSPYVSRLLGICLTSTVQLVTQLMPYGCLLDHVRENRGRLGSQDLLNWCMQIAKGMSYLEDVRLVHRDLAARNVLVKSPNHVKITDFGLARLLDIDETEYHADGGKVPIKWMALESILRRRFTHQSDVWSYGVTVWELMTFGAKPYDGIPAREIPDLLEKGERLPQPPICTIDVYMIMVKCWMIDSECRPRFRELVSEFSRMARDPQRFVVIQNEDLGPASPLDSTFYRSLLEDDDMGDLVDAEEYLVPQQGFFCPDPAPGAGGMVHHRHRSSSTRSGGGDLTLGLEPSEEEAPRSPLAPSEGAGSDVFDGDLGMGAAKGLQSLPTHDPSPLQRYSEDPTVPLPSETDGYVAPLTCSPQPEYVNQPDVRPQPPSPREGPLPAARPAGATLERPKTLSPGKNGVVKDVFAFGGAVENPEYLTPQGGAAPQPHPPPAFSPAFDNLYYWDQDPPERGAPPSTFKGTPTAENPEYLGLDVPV

Turning to `COc1cc2ncnc(Nc3ccc(F)c(Cl)c3)c2cc1OCCCN1CCOCC1`, the result in the series on NCI-H1975 [1] was Active.
For `O=C(CNC(=O)Oc1ccccc1)Nc1ccc2ncnc(Nc3cccc(Br)c3)c2c1`, the IC50 in series [2] was determined as 0.37 nM. In addition, the inhibition in [3] turned out to be 79.9%; in series [4], 95.2%.
As to `CC(C)c1nsc(C(=O)Nc2ccc3ncnc(Nc4cccc(Br)c4)c3c2)n1`, in series [2], the IC50 was 129 nM. The results for the inhibition in series [3] and in [4] were 66.9% and 82.3%, respectively.
Turning to `CCOC(=O)[C@@H]1O[C@H]1C(=O)Nc1ccc2ccccc2c1`, in the series with A-431, the viability at 10 µM was < 10%. Further, the inhibition in series [3] and in series [4] was 0% throughout.
On to `O=C(COc1ccc(F)cc1)Nc1ccc2ncnc(Nc3cccc(Br)c3)c2c1`, for which the IC50 in [2] is 8.43 nM; in the series with NCI-H1975 [5], 7.82 µM; in series [6], 76 nM; in series [7], 291 nM. Besides, the inhibition in [3] amounted to 77.6%; in [4] it was 97.4%.
As for `O=C(Cn1sc2ccccc2c1=O)Nc1ccc2ncnc(Nc3cccc(Br)c3)c2c1`, the IC50 in [2] was determined as 0.85 nM. For the same compound, the inhibition in series [3] was 30.7%; in series [4] it was 69%.
On to `O=C(COc1ccccc1)Nc1ccc2ccccc2c1`, for which, in the series with A-431, the viability at 10 µM is < 10%. Moreover, the inhibition in series [3] and in series [4] was 0% each time.
On to `O=C(Nc1ccc2ncnc(Nc3cccc(Br)c3)c2c1)[C@@H]1O[C@H]1CN1CCCCC1`, for which the IC50 in series [2] is 1.24 nM; in the series on NCI-H1975 [5], 1.72 µM; with SW-620 [8], > 10 µM; in series [6], 7 nM; in series [7], 44 nM. For the same compound, the inhibition entry was “Dose-dependent effect” in [9], 96.3% in [3] and 99.4% in [4]. Further, the Activity in the series on SW-620 [10] is on record as < 50%; with NCI-H1975 [11], 25%.
Take `Nc1ccc2ncnc(Nc3cccc(Br)c3)c2c1`: the inhibition in series [3] came out at 0%; in [4], 98.5%.
`C=CC(=O)Nc1ccc2ncnc(Nc3cccc(Br)c3)c2c1`: the IC50 in the series with SW-620 [8] was found to be 8.23 µM.
